The values that follow come from patent publication US7786287B2, “Hepatitis C virus assay systems” (priority 2002, dated 2010).

In this experiment the target is T1, beta-lactamase (Escherichia coli, UniProt P62593, A182V/V82I).
T1 construct: HCV core N-terminal partial region (first 12 codons, about 36 nucleotides of core), then a 3-residue linker (Gly-Arg-Ala) and an added Met before His24 of the enzyme; expressed in transfected cells; host or cells: replicon-enhanced Huh-7 cells transfected with HCV replicon RNA encoding beta-lactamase
Kind of experiment: HCV replicon beta-lactamase assay: signal-to-background with clavulanic acid. Type of experiment: cell-based. To be noted: for Δ: 1.23 at 0.00 μM, Δ not defined; for S/B: 3.5 at 0.00 μM. As to the method: Clavulanic acid can be used to enhance the signal-to-background ratio from the beta-lactamase reporter system wherein, a larger signal to noise ratio facilitates detection of HCV replication inhibitors by better reflecting changes in the intracellular concentration of beta-lactamase.
Prior to use, frozen cells are thawed fresh in the morning of the assay or the day before and diluted in pre-warmed media to 40,000 cells/ml. Cell suspension (50 μl) is plated into 384-well micro-titer plates. The cells are allowed to recover for at least 6 hours at 37° C. in the plates before beginning an assay. 1 μl of 25 μM clavulanic acid in PBS and 0.25 μl of 500 μM test compounds in DMSO are added to the cells. The assay cell plates are then incubated for 24 hours at 37° C. To the assay plate, 10 μl of 6×CCF4/AM substrate in loading buffer is added with a Multidrop (Labsystems), and the plate incubated for 90 minutes at ambient temperature. The plate is then read from the bottom on a Teacn Spectrafluor Plus (340 nm excitation, 460 nm and 530 nm emissions).
In the example described below, clavulanic acid is present throughout the assay at a concentration that slightly reduces beta-lactamase activity instead of using it at high concentration that would complete inhibit beta-lactamase activity.
Table 2 provides results obtained using different concentrations of clavulanic acid and an HCV NS5B inhibitor.

Regarding `O=C(O)[C@H]1/C(=C/CO)O[C@@H]2CC(=O)N21` [clavulanic acid], the Δ is 1.22 ([CA] 0.13 μM), 1.17 ([CA] 0.25 μM), 0.97 ([CA] 0.50 μM) and 0.81 ([CA] 1.00 μM). Further, the S/B ([CA] 0.13 μM) was 5.7, the S/B ([CA] 0.25 μM) was determined as 6.0, the S/B ([CA] 0.50 μM) is 6.3 and the S/B ([CA] 1.00 μM) came out at 5.4.
